Measurements from the CheMixHub viscosity set.
Several values for one entry are separate records, joined by “and”; a condition that tells them apart may be missing. Equal entries are not always repeated.

Experiment: xn = mol fraction of the nth substance listed

CNCCO + CCCCOCCO
viscosity, 101.3 kPa
Conditions | 293.15 K | 298.15 K | 303.15 K | 308.15 K | 313.15 K | 318.15 K | 323.15 K
x1 = 0.149 | 4.016 mPa·s | 3.469 mPa·s | 3.02 mPa·s | 2.649 mPa·s | 2.339 mPa·s | 2.077 mPa·s | 1.856 mPa·s
x1 = 0.403 | 5.748 mPa·s | 4.862 mPa·s | 4.158 mPa·s | 3.584 mPa·s | 3.112 mPa·s | 2.725 mPa·s | 2.401 mPa·s
x1 = 0.512 | 6.672 mPa·s and 6.73 mPa·s | 5.591 mPa·s and 5.64 mPa·s | 4.739 mPa·s and 4.78 mPa·s | 4.054 mPa·s and 4.09 mPa·s | 3.5 mPa·s and 3.53 mPa·s | 3.045 mPa·s and 3.07 mPa·s | 2.667 mPa·s and 2.69 mPa·s
x1 = 0.611 | 7.632 mPa·s | 6.341 mPa·s | 5.331 mPa·s | 4.528 mPa·s | 3.883 mPa·s | 3.358 mPa·s | 2.926 mPa·s
x1 = 0.702 | 8.54 mPa·s | 7.04 mPa·s | 5.87 mPa·s | 4.95 mPa·s | 4.22 mPa·s | 3.63 mPa·s | 3.15 mPa·s
x1 = 0.786 | 9.713 mPa·s | 7.929 mPa·s | 6.563 mPa·s | 5.498 mPa·s | 4.657 mPa·s | 3.983 mPa·s | 3.436 mPa·s
x1 = 0.934 | 12.07 mPa·s | 9.674 mPa·s | 7.893 mPa·s | 6.525 mPa·s | 5.461 mPa·s | 4.621 mPa·s | 3.948 mPa·s

CNC(C)=O + CCCCn1cc[n+](C)c1.F[B-](F)(F)F
101 kPa
Conditions | viscosity [mPa·s]
293.15 K, x2 = 0.8495 | 82.55
308.15 K, x2 = 0.714 | 24.65

CCOCCO + CCCO
viscosity [mPa·s]
Conditions | 298.15 K | 303.15 K | 308.15 K | 313.15 K
101 kPa, x1 = 0.069 | 1.942 | – | – | –
101 kPa, x1 = 0.1429 | 1.891 | – | – | –
101 kPa, x1 = 0.2223 | 1.852 | – | – | –
101 kPa, x1 = 0.3078 | 1.826 | – | – | –
101 kPa, x1 = 0.4001 | 1.811 | – | – | –
101 kPa, x1 = 0.5001 | 1.806 | – | – | –
101 kPa, x1 = 0.6088 | 1.81 | – | – | –
101 kPa, x1 = 0.7273 | 1.823 | – | – | –
101 kPa, x1 = 0.8572 | 1.839 | – | – | –
101.33 kPa, x1 = 0.0969 | 1.815 | 1.607 | 1.431 | 1.272
101.33 kPa, x1 = 0.199 | 1.761 | 1.56 | 1.395 | 1.244
101.33 kPa, x1 = 0.2917 | 1.73 | 1.542 | 1.376 | 1.235
101.33 kPa, x1 = 0.3971 | 1.659 | 1.482 | 1.326 | 1.178
101.33 kPa, x1 = 0.4928 | 1.711 | 1.521 | 1.366 | 1.223
101.33 kPa, x1 = 0.5933 | 1.721 | 1.531 | 1.377 | 1.233
101.33 kPa, x1 = 0.6923 | 1.732 | 1.546 | 1.386 | 1.232
101.33 kPa, x1 = 0.7987 | 1.754 | 1.567 | 1.403 | 1.265
101.33 kPa, x1 = 0.8853 | 1.774 | 1.578 | 1.418 | 1.402

CNC(C)=O + CCCO
303.15 K, 101 kPa
Conditions | viscosity [mPa·s]
x1 = 0.1069 | 1.816
x1 = 0.1939 | 1.891
x1 = 0.3142 | 2.033
x1 = 0.3918 | 2.142
x1 = 0.4791 | 2.289
x1 = 0.5976 | 2.537
x1 = 0.6966 | 2.785
x1 = 0.7922 | 3.066
x1 = 0.9015 | 3.443

CC(C)CCO + CCO
viscosity [mPa·s]
Conditions | x1 = 0.0558 | x1 = 0.1156 | x1 = 0.1843 | x1 = 0.2587 | x1 = 0.3588 | x1 = 0.4457 | x1 = 0.5523 | x1 = 0.6771 | x1 = 0.8255 | x2 = 0.5
298.15 K, 100 kPa | 1.291 | 1.591 | 1.919 | 2.235 | 2.576 | 2.831 | 3.086 | 3.312 | 3.463 | –
303.15 K, 100 kPa | 1.175 | 1.471 | 1.806 | 2.029 | 2.353 | 2.549 | 2.756 | 2.917 | 2.945 | –
308.15 K, 100 kPa | 1.236 | 1.672 | 2.049 | 2.279 | 2.559 | 2.699 | 2.763 | 2.814 | 2.815 | –
308.15 K, 101 kPa | – | – | – | – | – | – | – | – | – | 1.747
313.15 K, 101 kPa | – | – | – | – | – | – | – | – | – | 1.519
318.15 K, 101 kPa | – | – | – | – | – | – | – | – | – | 1.372
